# According to patent US20120184517A1, “TREATMENT OF DISEASES WITH ALTERED SMOOTH MUSCLE CONTRACTILITY” (priority 2009, published 2012):
# Entries after “also recorded” stand apart in the source; their conditions may differ.
# Tests used:
# [1] = target: T1, BK currents in tracheal smooth muscle (Mus musculus, UniProt Q08460); assay: Whole cell patch clamp of acutely isolated tracheal smooth muscle cells; format: cell-based, murine; parameters: unit of the concentration uncertain; settings: rottlerin (1 (unit uncertain)), FIG. 11A
# T1 construct: murine tracheal smooth muscle cells were acutely isolated and whole cell patch clamped; endogenous in cells; host or cells: acutely isolated murine tracheal smooth muscle cells
# Source text: In this experiment, murine tracheal smooth muscle cells were acutely isolated and whole cell patch clamped as previously described (Zakharov, S. et al., (2005) J Biol Chem 280, 30882-30887).
# Murine tracheal smooth muscle cells were isolated using the following protocol. Trachea were removed, cut longitudinally, the epithelium removed (brushing with sterile cotton bud) and the cartilage removed by cutting. The isolated trachea were dissected in culture medium and cut into several pieces (1-2 mm^2). After addition of 0.5 mg/ml papain (Roche, Nutley, N.J.) and 1 mg/ml dithiothreitol, the cells were dissociated at 37° C. for 20 minutes, gently shaking, followed by the addition of 0.1 mg/ml liberase enzyme 2 (Roche, Nutley, N.J.) for 30 minutes at 37° C. (5% CO2). The suspension was then pipetted gently several times to disburse cells, the cell suspension strained via a nylon cell strainer, and the suspension was gently triturated to disburse single cells. The cell suspension was then centrifuged at 700×g for 5 minutes and the pellet resuspended in 500 μl Krebs solution. The cells were plated onto laminin-coated tissue culture dishes. BK currents were recorded using whole-cell and outside-out macropatches.
# HDM-exposed mice = assay: House dust mite (HDM) sensitized asthma model
# Protocol: House dust mite (HDM) is one of the most common aeroallergens and is implicated in allergy and asthma symptoms in ˜10% of the population (Johnson et al., “Continuous exposure to house dust mite elicits chronic airway inflammation and structural remodeling.” Am J Respir Crit Care Med 169:378-385 (2004)). Exposure to HDM extract elicits a severe and persistent eosinophilic airway inflammation. Mice were exposed to purified HDM extract (Greer Laboratories, Lenoir, N.C.) intranasally (25 μg of protein in 10 μl saline) for 5 days/week for 3 weeks as previously described (Id.). […] Changes in pressure, flow, and volume were recorded, and airway resistance was calculated from peak values after each challenge using a Buxco forced maneuvers system and restrained whole body plethysmography (rWBP; PLY3011 chamber, Buxco (BUXCO Electronics Inc., Troy, N.Y.)).
# OVA-sensitized mice [2] = assay: OVA-asthma model, single i.v. dose before airway resistance measurement; format: in vivo
# Protocol: Groups of mice received an I.P. injection of OVA/Alum complex on days 0 and 7 and on alternate days 14-22, a 20 minute aerosol challenge of either PBS or 2% (w/v) OVA in PBS, using an ultrasonic nebulizer (FIG. 22A).
# OVA-sensitized mice [3] = assay: OVA induced acute asthma model, repeated i.p. rottlerin
# Protocol: In this example, the acute asthma model in ovalbumin (OVA) treated mice was used (Jia, Y., R. Foronjy, and J. D'Armiento, Altered airway inflammatory response to cigarette smoke in ovalbumin-sensitized mice. Am J. Resp and Critical Care Medicine (2006) p. Suppl:A339.). […] Mice received an intraperitoneal injection (i.p) of 100 μg ovalbumin adsorbed to 2 mg aluminum (200 μl final volume) on day 0 and again on day 7. Control mice were injected with endotoxin free PBS. On alternative days 14-22, mice received a 20 minute aerosol challenge of either endotoxin-free PBS (controls) or 2% (w/v) OVA in endotoxin-PBS, using a lumiscope 6610 ultrasonic nebulizer (Lumiscope, East Rutherford, N.J.).
# Two days after the last aerosol challenge, AHR was measured by invasive restrained whole body plethysmography (rWBP) (BUXCO Electronics Inc., Troy, N.Y.) in response to inhaled methacholine (Sigma, St. Louis, Mo.). For dynamic lung resistance, measurements were performed using the PLY3011 chamber (BUXCO). Mice were anesthetized with a cocktail of 25 mg per kg body weight ketamine hydrochloride (Bioniche Pharma, Lake Forest, Ill.) and 2.5 mg per kg body weight xylazine (Llyod Laboratories, Inc., Barangay Tikay, Malolos Bulacan, Philippines), tracheotomized, and immediately intubated with an 18-gauge catheter, followed by mechanical ventilation (Columbus Instruments International, Columbus, Ohio). Respiratory frequency was set at 150 breaths/minute with a tidal volume of 0.2 ml. Increasing concentrations of methacholine (0-50 mg/ml) were administered at the rate of 20 puffs per 10 seconds, with each puff of aerosol delivery lasting 10 ms, via a nebulizer aerosol system with a 4-6 μm aerosol particle size generated by a nebulizer head (Aeroneb®, Aerogen Ltd., Dangan, Galway, Ireland). The nebulizer is attached to a small aerosol block, which is placed in the inspiratory flow line. In this way the aerosol is injected directly into the airway. Baseline resistance was restored before administration of the subsequent doses of methacholine. The flow and pressure signals were measured and processed together to determine resistance and compliance using a software analyzer provided in BioSystem XA software (BUXCO Electronics Inc., Troy, N.Y.).
# After measurement of airway responsiveness in vivo, mice were sacrificed and their serum collected and stored at −80° C. until analysis. Serum levels of OVA-specific IgE were measured by sandwich ELISA as described previously (Kanamaru, F., et al. “Costimulation via Glucocorticoid-Induced TNF Receptor in Both Conventional and CD25^+ Regulatory CD4^+ T Cells.” J Immunol., Vol. 172, pages 7306-7314 (2004)).
# Bronchoalveolar lavage (BAL) was performed by injection of 1 ml saline (37° C.) through a tracheal cannula into the lung. Cells in the BAL were centrifuged and resuspended in cold PBS. For differential BAL cell counts, cytospin preparations were made and per cytospin, 200 cells were counted and differentiated by standard morphology and staining characteristics.
# IL-4, IL-5 and IL-13 ELISAs were performed according to the manufacturer's instructions (R & D systems, Minneapolis, Minn.). The detection limits of the ELISAs were 60 pg/ml for IL-4, 32 pg/ml for IL-5, 15 pg/ml IL-13.
# In this system mice are anesthetized and ventilated and through a cannula in the trachea, tracheal pressure and flow are continuously monitored and traditional pulmonary mechanics can be measured. This system is preferable over the method of oscillatory mechanics due to the consistency of measurements and the ability to directly measure pressure and flow. Changes in pressure, flow, and volume were recorded, and RL was calculated from peak values after each challenge (FIG. 14A).
# After determining the airway hyperresponsiveness, lungs were lavaged with PBS and total cell count with differential was determined on the bronchoalveolar cells (BAL).
# T1 sequence (Q08460 whole entry): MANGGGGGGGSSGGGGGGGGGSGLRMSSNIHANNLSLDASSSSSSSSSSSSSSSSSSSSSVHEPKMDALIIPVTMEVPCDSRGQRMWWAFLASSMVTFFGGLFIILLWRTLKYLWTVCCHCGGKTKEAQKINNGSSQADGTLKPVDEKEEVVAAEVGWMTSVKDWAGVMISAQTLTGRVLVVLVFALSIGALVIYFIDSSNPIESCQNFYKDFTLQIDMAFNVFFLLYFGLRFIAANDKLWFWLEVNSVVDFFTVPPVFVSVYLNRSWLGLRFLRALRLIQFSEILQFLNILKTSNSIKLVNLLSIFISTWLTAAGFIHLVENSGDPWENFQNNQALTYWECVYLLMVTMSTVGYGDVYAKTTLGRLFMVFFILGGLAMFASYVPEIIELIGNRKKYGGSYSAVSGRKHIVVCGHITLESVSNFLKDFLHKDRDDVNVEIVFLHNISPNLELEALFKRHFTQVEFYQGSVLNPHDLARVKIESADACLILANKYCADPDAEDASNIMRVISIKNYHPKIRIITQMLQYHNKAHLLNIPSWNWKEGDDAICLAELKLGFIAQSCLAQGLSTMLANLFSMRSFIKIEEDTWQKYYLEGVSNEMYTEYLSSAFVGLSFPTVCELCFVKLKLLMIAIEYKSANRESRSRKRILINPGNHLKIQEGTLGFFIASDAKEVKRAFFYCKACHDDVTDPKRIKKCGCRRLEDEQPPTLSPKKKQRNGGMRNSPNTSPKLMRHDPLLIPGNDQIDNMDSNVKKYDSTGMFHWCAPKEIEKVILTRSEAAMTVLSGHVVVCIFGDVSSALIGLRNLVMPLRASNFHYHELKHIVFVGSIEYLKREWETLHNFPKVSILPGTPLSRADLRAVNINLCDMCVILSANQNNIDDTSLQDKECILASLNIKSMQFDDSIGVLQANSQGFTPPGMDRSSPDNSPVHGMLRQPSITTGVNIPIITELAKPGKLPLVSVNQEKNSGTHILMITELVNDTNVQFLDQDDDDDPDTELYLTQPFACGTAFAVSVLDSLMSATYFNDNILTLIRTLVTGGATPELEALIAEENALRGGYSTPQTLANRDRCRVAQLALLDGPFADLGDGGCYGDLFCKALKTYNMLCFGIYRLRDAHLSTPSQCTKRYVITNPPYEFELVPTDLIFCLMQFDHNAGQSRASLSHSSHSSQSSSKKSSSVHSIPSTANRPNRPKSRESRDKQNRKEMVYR
# T1 sequence (Q8CAE3 whole entry partner): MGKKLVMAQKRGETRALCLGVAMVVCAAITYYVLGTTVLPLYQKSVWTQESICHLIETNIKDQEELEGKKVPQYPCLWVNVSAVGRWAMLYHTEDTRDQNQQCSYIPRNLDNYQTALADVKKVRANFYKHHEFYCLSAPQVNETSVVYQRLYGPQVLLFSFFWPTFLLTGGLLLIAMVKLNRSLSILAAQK
compound,measurement,setting,value
"CC(=O)c1c(O)c(C)c(O)c(Cc2c(O)c3c(c(C(=O)/C=C/c4ccccc4)c2O)OC(C)(C)C=C3)c1O [rottlerin, 5,7-dihydroxy-2,2-dimethyl-6-(2,4,6-trihydroxy-3-methyl-5-acetylbenzyl)-8-cinnamoyl-I,2-chromene]",BK currents,[1],significantly activated
same,"adverse effect, mortality, morbidity",HDM-exposed mice; 5 μg/g intraperitoneal every other day,no significant adverse effect
same,cellular infiltrate in the peribronchial and perivascular regions,HDM-exposed mice; HDM-exposed animals,significant reduction
same,airway resistance,"HDM-exposed mice; HDM-sensitized mice, methacholine 25-50 mg/ml",marked decrease in their airway resistance
same,airway resistance,HDM-exposed mice; PBS-sensitized animals,no effect
same,β-agonist mediated relaxation of the airway,"OVA-sensitized mice [2]; Rottlerin (5 μg/g) in combination with Isoproterenol (2.5 μg/g), tail vein",increased β-agonist mediated relaxation of the airway
same,time to reduction of AHR,OVA-sensitized mice [2]; single I.V. administration,≤ 5 min
same,airway resistance (RL),"OVA-sensitized mice [2]; single dose 5 μg/g I.V. 5 minutes before measurement, OVA-sensitized mice",significant decrease in their RL; also recorded: significantly reduced airway resistance
same,serum OVA specific IgE,"OVA-sensitized mice [3]; OVA+rottlerin versus OVA, 48 hours after last challenge",similar
same,"Th2 cytokines IL-4, IL-5 and IL-13 in BALF",OVA-sensitized mice [3]; OVA-sensitized animals,significantly reduced
same,number of inflammatory leukocytes in BAL,OVA-sensitized mice [3]; OVA-sensitized mice,significant decrease
same,number of macrophages and eosinophils in BAL,OVA-sensitized mice [3]; OVA-sensitized mice,marked reduction
same,airway constriction,"OVA-sensitized mice [3]; OVA-sensitized mice, 25 mg/ml methacholine challenge, rottlerin 5 mg per kg i.p.",decrease in airway constriction
same,airway resistance (RL),"OVA-sensitized mice [3]; OVA-sensitized mice, MCh 25-50 mg/ml, rottlerin 5 mg per kg i.p.",decrease in their airway resistance
same,airway constriction with isoproterenol,"OVA-sensitized mice [3]; OVA-sensitized mice, isoproterenol i.p. 20, 40 and 100 μg after 50 mg/ml methacholine",significant decrease in airway constriction
same,cellular infiltrate in the peribronchial and perivascular regions,"OVA-sensitized mice [3]; OVA-sensitized/challenged animals, H & E stain",significant reduction
same,airway resistance,OVA-sensitized mice [3]; PBS-sensitized animals,no effect
same,"adverse effect, morbidity, mortality","OVA-sensitized mice [3]; rottlerin 5 mg per kg i.p., repeated",no significant adverse effect
